Test results taken from publication PMC4870679, “A novel pathway for fungal D-glucuronate catabolism contains an L-idonate forming 2-keto-L-gulonate reductase” (Scientific Reports, 2016).

What was measured:
[1] = system: GluC (2-keto-L-gulonate reductase); experiment: NADH consumption at […] nm, Konelab analyser; type: biochemical, Aspergillus niger; details: 400 uM NADH, 50 mM Tris pH 7
[2] = system: GluC (2-keto-L-gulonate reductase); experiment: NADH formation at […] nm, Konelab analyser; type: biochemical, Aspergillus niger; details: 400 uM NAD+, 50 mM Tris pH 8; reverse direction

Row | Km [1] | Structure (SMILES) | Km [2]
1 | 30 mM | O=C(O)C(=O)[C@@H](O)[C@H](O)[C@@H](O)CO [2-keto-L-gulonate] | 
2 |  | O=C(O)[C@H](O)[C@@H](O)[C@H](O)[C@@H](O)CO [L-idonate] | 20 mM
